{"source": "paper PMC8765437", "about": "“GSK3640254 Is a Novel HIV-1 Maturation Inhibitor with an Optimized Virology Profile” (Antimicrobial Agents and Chemotherapy, 2022)", "system": "NLRepRlucP373S viruses containing Gag SDMs or gag/pr genes from clinical isolates", "test": "Multiple-cycle replication assay, NLRepRluc reporter viruses in MT-2 cells, luciferase endpoint", "type": "cell-based, HIV-1", "source_text": "Multiple-cycle assays using recombinant viruses or clinical isolates were used to assess MI antiviral activity as described previously ([10]). pNLRepRlucP373S (the P373S change is in the Gag gene and converts an outlier polymorphism in the NL4-3 gene to the prevalent amino acid in the population) plasmids containing SDMs in Gag or gag/pr regions from clinical isolates were transfected into HEK 293T cells, and the supernatant containing recombinant virus was harvested after 4 to 5 days. Virus was used to infect MT-2 cells in the presence of a 3-fold serially diluted compound at a final dimethyl sulfoxide (DMSO) concentration of 1%. The inocula of the reporter viruses were determined based on the luciferase activity detected on day 4 postinfection. The MOI (ratio of infectious virions to target cells) of reporter-free laboratory strains and clinical isolates was 0.005, as derived from a tissue culture infectious dose study. Clinical isolates or reporter-free viruses were examined in the reporter CEM-NKR-CCR5-Luc cells or PBMCs at MOIs ranging from 0.005 to 0.01. Each infection started with a drug-free preincubation of the cell-virus mixtures, performed at 37°C and 5% CO2 for either 1 h at 2 times the final cell density (reporter viruses) or 1 h (reporter-free laboratory strains) or 3 h (clinical isolates) using cell pellets in 0.5 mL of medium. After preincubation, cell-virus mixtures were added to compound-containing 96-well plates for a final cell density of either 10,000 (MT-2 cells for reporter viruses), 20,000 (MT-2 and PM1 cells for reporter-free laboratory strains), 200,000 (PBMCs for clinical isolates), or 500,000 (CEM-NKR-CCR5-Luc for reporter-free laboratory strains) cells per well. The CEM-NKR-CCR5-Luc cell assay was performed in the presence of Polybrene (10 μg/mL). Virus growth was determined on days 4 to 5 postinfection for reporter variants or days 5 to 11 for the other viruses. The reporter viruses were detected by a luciferase assay according to manufacturer protocols (Brite-Glo luciferase kit [Promega] for CEM-NKR-CCR5-Luc cells and Dual-Luciferase Reporter 1000 assay system [Promega] for the other cells), and luminescence was detected on a Wallac Trilux. The growth of clinical isolates in PBMCs was quantitated by reverse transcriptase activity in a 96-well scintillation proximity assay (SPA). Twenty microliters of culture supernatants was mixed with 40 μL of reaction cocktail (62.5 mM Tris-HCl [pH 7.8], 100 mM KCl, 0.0625% NP-40, 2.5 mM dithiothreitol [DTT], 6.25 mM MgCl2, 1 mM EGTA, 6.25 μg/mL of poly rA, 2.5 μg/mL of streptavidin SPA beads prebound with biotinylated-dT12-18, and 1 μCi of [^3H]TTP). Mixtures were incubated at 37°C for ∼3 h and quenched with 100 μl of 0.25 M EDTA per well. Luminescence was detected on a Wallac Trilux programmed for tritium counting with SPA beads in opaque plates. The growth of the reporter-free laboratory M-tropic strains and clinical isolates was monitored by a p24 enzyme-linked immunosorbent assay (ELISA; PerkinElmer Life Sciences, Waltham, MA) performed on culture supernatants. […] A 1:1,000 dilution of cell supernatant in PBS was generally observed to fall in the dynamic range of the endpoint signal.\nMaximal percent inhibition values were calculated as MPI = 100 – (mean signals at the 2 highest concentrations of compound/mean signal of 2 no-drug control wells) × 100.", "note": "Where two headings read alike, the source gives them in different places.", "data": [{"smiles": "C=C(C)[C@@H]1CC[C@]2(NCCN3CCS(=O)(=O)CC3)CC[C@]3(C)[C@H](CC[C@@H]4[C@@]5(C)CC=C(c6ccc(C(=O)O)cc6)C(C)(C)[C@@H]5CC[C@]43C)[C@@H]12", "note": "[GSK’795, reference compound]", "values": [{"measurement": "MPI", "setting": "A366V-containing viruses", "result": "−13 to 408", "unit": "%"}, {"measurement": "EC50", "setting": "Human immunodeficiency virus 1, MT2, Table S1, SDM A326T/V362I/V370A", "result": "≥ 3000", "unit": "nM"}, {"measurement": "EC50", "setting": "Human immunodeficiency virus 1, MT2, Table S1, SDM S368R/V370A", "result": 2, "unit": "nM"}, {"measurement": "EC50", "setting": "Human immunodeficiency virus 1, MT2, Table S1, SDM T332S/V362I/PrR41G", "result": 700, "unit": "nM"}, {"measurement": "EC50", "setting": "Human immunodeficiency virus 1, MT2, Table S1, SDM V362I/V370A", "result": "≥ 3000", "unit": "nM"}, {"measurement": "EC50", "setting": "Human immunodeficiency virus 1, MT2, Table S1, SDM V370A", "result": 6, "unit": "nM"}, {"measurement": "EC50", "setting": "Human immunodeficiency virus 1, MT2, Table S1, SDM V370A/ΔT371", "result": 7, "unit": "nM"}, {"measurement": "EC50", "setting": "Human immunodeficiency virus 1, MT2, Table S1, SDM ΔV370", "result": 6, "unit": "nM"}, {"measurement": "EC50", "setting": "Human immunodeficiency virus 1, MT2, Table S1, subtype B SDM Wild-type (V, QVT)", "result": 5, "unit": "nM"}, {"measurement": "EC50", "setting": "Human immunodeficiency virus 1, MT2, read-out: EC50 (range), Subtype C gag/pr viruses, n=11", "result": "3 to 22", "unit": "nM"}, {"measurement": "EC50", "setting": "Human immunodeficiency virus 1, MT2, read-out: EC50 (range), V362I only viruses, n=9", "result": "3 to 54", "unit": "nM"}, {"measurement": "EC50", "setting": "Human immunodeficiency virus 1, MT2, read-out: EC50 (range), Wild-type subtype B, n=5", "result": "1 to 6", "unit": "nM"}, {"measurement": "EC50", "setting": "Human immunodeficiency virus 1, MT2, read-out: Mean ± SD EC50, A366V-containing viruses (A366V, V362I/A366V, V362I/A366V/V370M, A366V/V370M)", "result": "> 3000", "unit": "nM"}, {"measurement": "EC50", "setting": "Human immunodeficiency virus 1, MT2, read-out: Mean ± SD EC50, SDM A326T/V362I/V370A", "result": "> 3000", "unit": "nM"}, {"measurement": "EC50", "setting": "Human immunodeficiency virus 1, MT2, read-out: Mean ± SD EC50, SDM A364V", "result": "> 3000", "unit": "nM"}, {"measurement": "EC50", "setting": "Human immunodeficiency virus 1, MT2, read-out: Mean ± SD EC50, SDM R361K/V362I/L363M", "result": "552 ± 971", "unit": "nM"}, {"measurement": "EC50", "setting": "Human immunodeficiency virus 1, MT2, read-out: Mean ± SD EC50, SDM T332S/V362I/prR41G", "result": "704 ± 606", "unit": "nM"}, {"measurement": "EC50", "setting": "Human immunodeficiency virus 1, MT2, read-out: Mean ± SD EC50, SDM V362I/V370A", "result": "> 3000", "unit": "nM"}, {"measurement": "EC50", "setting": "Human immunodeficiency virus 1, MT2, read-out: Mean ± SD EC50, SDM V370A", "result": 6, "unit": "nM"}, {"measurement": "EC50", "setting": "Human immunodeficiency virus 1, MT2, read-out: Mean ± SD EC50, SDM Wild type", "result": "5 ± 3", "unit": "nM"}, {"measurement": "EC50", "setting": "Human immunodeficiency virus 1, MT2, read-out: Mean ± SD EC50, SDM ΔV370", "result": "6 ± 2", "unit": "nM"}, {"measurement": "EC50", "setting": "Human immunodeficiency virus 1, MT2, read-out: Mean ± SD EC50, Subtype B gag/pr viruses, n=24", "result": 66, "unit": "nM"}, {"measurement": "EC50", "setting": "Human immunodeficiency virus 1, MT2, read-out: Mean ± SD EC50, Subtype C gag/pr viruses, n=11", "result": "9.1 ± 5.6", "unit": "nM"}, {"measurement": "EC50", "setting": "Human immunodeficiency virus 1, MT2, read-out: Mean ± SD EC50, V362I only viruses, n=9", "result": "11.1 ± 16.3", "unit": "nM"}, {"measurement": "EC50", "setting": "Human immunodeficiency virus 1, MT2, read-out: Mean ± SD EC50, V362I/ΔV370 virus, n=1", "result": 1400, "unit": "nM"}, {"measurement": "EC50", "setting": "Human immunodeficiency virus 1, MT2, read-out: Mean ± SD EC50, Wild-type subtype B (V362, Q369, V370, T371), n=5", "result": "2.8 ± 2.5", "unit": "nM"}, {"measurement": "EC50", "setting": "Human immunodeficiency virus 1, MT2, read-out: Median EC50, Subtype B gag/pr viruses, n=24", "result": 5, "unit": "nM"}, {"measurement": "EC50", "setting": "Human immunodeficiency virus 1, MT2, read-out: Median EC50, Subtype C gag/pr viruses, n=11", "result": 7, "unit": "nM"}, {"measurement": "EC50", "setting": "Human immunodeficiency virus 1, MT2, read-out: Median EC50, V362I only viruses, n=9", "result": 5, "unit": "nM"}, {"measurement": "EC50", "setting": "Human immunodeficiency virus 1, MT2, read-out: Median EC50, Wild-type subtype B, n=5", "result": 1, "unit": "nM"}, {"measurement": "EC90", "setting": "Human immunodeficiency virus 1, MT2, read-out: PBA EC90, Table S1, SDM R361K/V362I/L363M", "result": 321000, "unit": "nM"}, {"measurement": "EC90", "setting": "Human immunodeficiency virus 1, MT2, read-out: PBA EC90, Table S1, SDM S368R/V370A", "result": 40, "unit": "nM"}, {"measurement": "EC90", "setting": "Human immunodeficiency virus 1, MT2, read-out: PBA EC90, Table S1, SDM T332S/V362I/PrR41G", "result": 422000, "unit": "nM"}, {"measurement": "EC90", "setting": "Human immunodeficiency virus 1, MT2, read-out: PBA EC90, Table S1, SDM V370A", "result": 50, "unit": "nM"}, {"measurement": "EC90", "setting": "Human immunodeficiency virus 1, MT2, read-out: PBA EC90, Table S1, SDM V370A/ΔT371", "result": 230, "unit": "nM"}, {"measurement": "EC90", "setting": "Human immunodeficiency virus 1, MT2, read-out: PBA EC90, Table S1, SDM ΔV370", "result": 1030, "unit": "nM"}, {"measurement": "EC90", "setting": "Human immunodeficiency virus 1, MT2, read-out: PBA EC90, Table S1, subtype B SDM Wild-type (V, QVT)", "result": 110, "unit": "nM"}, {"measurement": "EC90", "setting": "Human immunodeficiency virus 1, MT2, read-out: PBA EC90, subtype B gag/pr 4NRR (Wild-type)", "result": 70, "unit": "nM"}, {"measurement": "EC90", "setting": "Human immunodeficiency virus 1, MT2, read-out: PBA EC90, subtype B gag/pr 28-MDR (Wild-type)", "result": 100, "unit": "nM"}, {"measurement": "EC90", "setting": "Human immunodeficiency virus 1, MT2, read-out: PBA EC90, subtype B gag/pr 92BR014 (V370M)", "result": 370, "unit": "nM"}, {"measurement": "EC90", "setting": "Human immunodeficiency virus 1, MT2, read-out: PBA EC90, subtype B gag/pr 92BR018 (V, QAΔ)", "result": 970, "unit": "nM"}, {"measurement": "EC90", "setting": "Human immunodeficiency virus 1, MT2, read-out: PBA EC90, subtype B gag/pr 92TH014 (V362I)", "result": 670, "unit": "nM"}, {"measurement": "EC90", "setting": "Human immunodeficiency virus 1, MT2, read-out: PBA EC90, subtype B gag/pr 92TH026 (V362I)", "result": 210, "unit": "nM"}, {"measurement": "EC90", "setting": "Human immunodeficiency virus 1, MT2, read-out: PBA EC90, subtype B gag/pr 92US072 (V362I)", "result": 130, "unit": "nM"}, {"measurement": "EC90", "setting": "Human immunodeficiency virus 1, MT2, read-out: PBA EC90, subtype B gag/pr 92US729 (Wild-type)", "result": 70, "unit": "nM"}, {"measurement": "EC90", "setting": "Human immunodeficiency virus 1, MT2, read-out: PBA EC90, subtype B gag/pr 93BR008 (V362I)", "result": 120, "unit": "nM"}, {"measurement": "EC90", "setting": "Human immunodeficiency virus 1, MT2, read-out: PBA EC90, subtype B gag/pr 93BR009 (V370M)", "result": 130, "unit": "nM"}, {"measurement": "EC90", "setting": "Human immunodeficiency virus 1, MT2, read-out: PBA EC90, subtype B gag/pr 93BR017 (V, QAΔ)", "result": 600, "unit": "nM"}, {"measurement": "EC90", "setting": "Human immunodeficiency virus 1, MT2, read-out: PBA EC90, subtype B gag/pr 93BR022 (V, QAΔ)", "result": 630, "unit": "nM"}, {"measurement": "EC90", "setting": "Human immunodeficiency virus 1, MT2, read-out: PBA EC90, subtype B gag/pr 93TH0647 (V362I)", "result": 60, "unit": "nM"}, {"measurement": "EC90", "setting": "Human immunodeficiency virus 1, MT2, read-out: PBA EC90, subtype B gag/pr 93US141 (V362I)", "result": 250, "unit": "nM"}, {"measurement": "EC90", "setting": "Human immunodeficiency virus 1, MT2, read-out: PBA EC90, subtype B gag/pr 411-1-C (Wild-type)", "result": 40, "unit": "nM"}, {"measurement": "EC90", "setting": "Human immunodeficiency virus 1, MT2, read-out: PBA EC90, subtype B gag/pr 220162 (Wild-type)", "result": 600, "unit": "nM"}, {"measurement": "EC90", "setting": "Human immunodeficiency virus 1, MT2, read-out: PBA EC90, subtype B gag/pr 400024 (V370M)", "result": 79000, "unit": "nM"}, {"measurement": "EC90", "setting": "Human immunodeficiency virus 1, MT2, read-out: PBA EC90, subtype B gag/pr 400051 (V370A)", "result": 30, "unit": "nM"}, {"measurement": "EC90", "setting": "Human immunodeficiency virus 1, MT2, read-out: PBA EC90, subtype B gag/pr 1000038 (V362I/V370A)", "result": 977000, "unit": "nM"}]}]}
